Experimental data: patent US20080027008A1, “Antitumorigenic Drug Combination” (priority 2006, published 2008)

Tested on: Dogs with Lymphoma
Test: Efficacy Study for Treatment of Dogs with Lymphoma
Format: in vivo
Conditions: treatment received population of dogs
Procedure: Twenty-five (25) dogs of varying sex, weight, breed and age (5.5-14.0 yrs) were entered for the study. […] All dogs entered for study had received prior chemotherapy and enrolled to the study following disease relapse.
All dogs were treated with N-[2-[(4-HYDROXYPHENYL)AMINO]-3-PYRIDYL]-4-METHOXYBENZENESULFONAMIDE at an initial dose of 350 mg/m2 PO QD for 7 days then treated at 350 mg/m2 EOD×21 days. If no significant objective response or doselimiting toxicities were noted after 28 days on therapy, a QD regimen was restarted for 7 days. Otherwise, dogs continued on EOD dosing until study discontinuation.
All dogs were treated with ABT-510 at a dose of 1 mg/kg SQ divided BID starting 24 hours after the first dose of N-[2-[(4-HYDROXYPHENYL)AMINO]-3-PYRIDYL]-4-METHOXYBENZENESULFONAMIDE was administered.
Dogs treated with N-[2-[(4-HYDROXYPHENYL)AMINO]-3-PYRIDYL]-4-METHOXYBENZENESULFONAMIDE and ABT-510 therapy were evaluated at Day 0, Day 7, Day 28 then every 28 days thereafter. Assessment of tumor burden was made based on measurement of target lymph nodes (no more than 3 nodes/animal). The lymph node volume (I×w×h) was calculated for each target lymph node and assessed as a sum of total tumor burden. Standard response endpoints were evaluated based on the criteria below: • Complete response (CR) is defined as disappearance of all clinical evidence of cancer and of any signs related to the cancer. • Partial response (PR) is defined as a 50% or greater decrease in the sum of the products of measurements for representative lesions, without an increase in size of any lesions or appearance of any new lesions. • Minimal response (MR) is defined as a 25% or greater decrease in the sum of the products of measurements for representative lesions, without an increase in size of any lesions or appearance of any new lesions. • Stable disease is defined as no response or a response of less than that defined for partial response or progressive disease without appearance of any new lesions or worsening of clinical signs. • Progressive disease is defined as an unequivocal increase of at least 50% in the size of any measurable lesion or appearance of new lesions.
The Intent-to-Treat population included all 25 dogs enrolled in the study. Five (5) dogs withdrew from the study early due to their inability to receive N-[2-[(4-HYDROXYPHENYL)AMINO]-3-PYRIDYL]-4-METHOXYBENZENESULFONAMIDE and ABT-510 longer than 7 days. Four (4) of these dogs withdrew due to rapid lymphoma progression. One (1) dog withdrew due to owner decision related to side effects while receiving study agents.
The Treatment Received population included dogs who received N-[2-[(4-HYDROXYPHENYL)AMINO]-3-PYRIDYL]-4-METHOXYBENZENESULFONAMIDE and ABT-510 therapy for longer than 7 days. […]

With `COc1ccc(S(=O)(=O)Nc2cccnc2Nc2ccc(O)cc2)cc1` [Single Agent, N-[2-[(4-HYDROXYPHENYL)AMINO]-3-PYRIDYL]-4-METHOXYBENZENESULFONAMIDE] the “Response Duration, Mean” value (mean) was “Mean = 65 days”, the “Time to Progression, Mean” value (mean) was “Mean = 21 days” and the “Response Duration, Median” value (median) was “Median = 24 days”. For the same compound, the “Time to Progression, Median” value (median) was “Median = 18 days”.
